Tests used:
Experiment in all cases: drug sensitivity score (DSS) (DSS (unitless, 0-50 scale)); higher = more sensitive (stronger viability inhibition); extreme values may be limits of the assay
Conditions in all cases: 72 h; culture: 2D
Bowes = test system: Bowes
Method in brief: (§1)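 Viability was measured by CellTiter-Glo luminescence after 72 h at 37 °C in 384-well plates holding a 527-compound oncology library, with patient-derived melanoma cultures (1000–1500 cells per well) and melanoma cell lines grown in 2D. Every compound was tested at five concentrations spanning a 10,000-fold range. The drug sensitivity score, a modified area under the curve, came from dose-response curves fitted with in-house Breeze software.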

FM-MEL-3 = test system: FM-MEL-3
Method in brief: as §1

FM-MEL-2 = test system: FM-MEL-2
Method in brief: as §1

SK-MEL-28 = test system: SK-MEL-28
Method in brief: as §1

WM165 = test system: WM165
Method in brief: as §1

FM-MEL-6 = test system: FM-MEL-6
Method in brief: as §1

SK-MEL-2 = test system: SK-MEL-2
Method in brief: as §1

WM852 = test system: WM852
Method in brief: as §1

Structure (SMILES)	drug sensitivity score (Bowes)	drug sensitivity score (FM-MEL-3)	drug sensitivity score (FM-MEL-2)	drug sensitivity score (SK-MEL-28)	drug sensitivity score (WM165)	drug sensitivity score (FM-MEL-6)	drug sensitivity score (SK-MEL-2)	drug sensitivity score (WM852)
CC(C)c1cc(-c2n[nH]c(=O)n2-c2ccc3c(ccn3C)c2)c(O)cc1O [Ganetespib]	15.2	21	11.2	8.5	17.1	7	12.8	9.9
Cc1cccc(CC(=O)N2CCc3c2ccc(-c2cn(C)c4ncnc(N)c24)c3F)n1	0	0.9	0	0	0	0.1	0	3.7
CC1(COc2ccc3c(c2)ncn3-c2ccc3cccc(N4CCC(N)CC4)c3n2)COC1 [Crenolanib]	4.6	1.5	5	6.8	7	5.4	5.4	6.6
Nc1ncn([C@@H]2O[C@H](CO)[C@@H](O)[C@H]2O)c(=O)n1 [Azacitidine]	2.6	8.6	3.1	0.4	4.2	4.7	1.6	0.1
Cc1c(N)nc([C@H](CC(N)=O)NC[C@H](N)C(N)=O)nc1C(=O)N[C@H](C(=O)N[C@H](C)[C@@H](O)[C@H](C)C(=O)N[C@H](C(=O)NCCc1nc(-c2nc(C(=O)NCCC[S+](C)C)cs2)cs1)[C@@H](C)O)[C@@H](OC1OC(CO)C(O)C(O)C1OC1OC(CO)C(O)C(OC(N)=O)C1O)c1cnc[nH]1 (stereo partly specified) [Bleomycin]	0.9	5	2.4	1.8	9.4	2.1	0	0
Cc1sc2c(c1C)C(c1ccc(Cl)cc1)=N[C@@H](CC(=O)Nc1ccc(OCCOCCOCCOCCNc3cccc4c3C(=O)N(C3CCC(=O)NC3=O)C4=O)cc1)c1nnc(C)n1-2 (stereo partly specified) [ARV-825]	14.2	4.8	4.7	3.4	8.3	6.1	2.9	0
C=C1C[C@@H]2CC[C@@]34C[C@H]5O[C@H]6[C@@H](O3)[C@H]3O[C@H](CC[C@@H]3O[C@H]6[C@H]5O4)CC(=O)C[C@@H]3[C@@H](OC)[C@@H](C[C@H](O)CN)O[C@H]3C[C@H]3O[C@@H](CC[C@@H]1O2)C[C@@H](C)C3=C [Eribulin]	23.6	9.4	4.8	11.2	22.5	18.5	20.4	22.8
Cc1nc(NC(=O)N2CCC[C@H]2C(N)=O)sc1-c1ccnc(C(C)(C)C(F)(F)F)c1 [Alpelisib]	0.3	2.7	2.1	1.2	0.6	0.7	0	1.9
COc1cc(C(=O)O)ccc1NC(=O)[C@@H]1N[C@@H](CC(C)(C)C)[C@](C#N)(c2ccc(Cl)cc2F)[C@H]1c1cccc(Cl)c1F [Idasanutlin]	3.4	19.7	3.7	0	22.7	0.3	0	0
CN(C)CCOc1ccc(/C(=C(/CCCl)c2ccccc2)c2ccccc2)cc1 [Toremifene]	1.1	7.8	5.8	4.4	4.3	6	1.6	3.4
COc1cc(C)[nH]c(=O)c1CNC(=O)c1c(C)n([C@H](C)C2CCOCC2)c2ccccc12 [CPI-360]	0	0	0.2	0	0	0.6	0	0
C[C@]12C=CC(=O)C=C1CC[C@@H]1[C@@H]2[C@@H](O)C[C@@]2(C)[C@H]1CC[C@]2(O)C(=O)CO [Prednisolone]	0	2.8	0.3	0	0	0	0	0
CCC(C)(C)C(=O)O[C@H]1C[C@@H](C)C=C2C=C[C@H](C)[C@H](CC[C@@H]3C[C@@H](O)CC(=O)O3)[C@H]21 [Simvastatin]	2.8	1	0	0	4.5	0.3	0.1	1
CNC(=O)c1ccc(N2C(=S)N(c3ccc(C#N)c(C(F)(F)F)c3)C(=O)C2(C)C)cc1F [Enzalutamide]	0.1	0.3	0.2	0	0	0	0	0.9
COc1ccc(Cn2ccc3ccc(C(=O)NO)cc32)cc1	0	0.3	0	0.2	1.6	0	0	0.6
CCCCc1nc2cc(/C=C/C(=O)NO)ccc2n1CCN(CC)CC [Pracinostat]	9.2	13.3	14.5	12.9	16.8	14	14	9.1
CN(c1ncccc1CNc1nc(Nc2ccc3c(c2)CC(=O)N3)ncc1C(F)(F)F)S(C)(=O)=O	6.4	7.1	3	4.7	9.1	5.2	0	5.3

Source: the supplement of paper PMC8633005
